Laboratory results: patent EP4786487A1, “PEPTIDE” (Peptidream Inc, priority 2023, dated 2025)
Starred links: 1 amine or outer side, 2 acyl side, 3 side chain; linkers in the order of their positions; H or OH if unused. Positions of bridges follow the written chain, without caps; N, C: chain ends. Non-standard residues stand in square brackets, D forms with d. Residues, ends and D or L forms follow the SMILES beside them. *: point of attachment. Phe(3-OCH2COOH) = N[C@@H](Cc1cccc(OCC(=O)O)c1)C(=O)O; Phe(4-COOH) = N[C@@H](Cc1ccc(C(=O)O)cc1)C(=O)O; Trp(6-aza) = N[C@@H](Cc1c[nH]c2cnccc12)C(=O)O; Piperazinyl(4-CH2COOH) = O=C(O)CN1CCN(*)CC1; NMe4Pal = CN[C@@H](Cc1ccncc1)C(=O)O; X1 = CCCCCCC[C@H](N[*:1])C(=O)[*:2]; X5 = CC(=O)NCCCN(CC(=O)[*:2])[*:1]; Gly(N-(CH2)3OMe) = COCCCNCC(=O)O; NMeF = CN[C@@H](Cc1ccccc1)C(=O)O; 4Pal = N[C@@H](Cc1ccncc1)C(=O)O; NMeA = CN[C@@H](C)C(=O)O; Nme = COCCNCC(=O)O; Sar = CNCC(=O)O

Experiments:
[1] = target: T1, Myostatin (Homo sapiens, UniProt O14793); assay: HepG2 reporter gene assay, Evaluation Procedure (2): 2-concentrations assay, myostatin inhibition; format: cell-based; details: Myostatin 10 ng/mL, HepG2; for inhibition at 0.03 µM: peptide 30nM, read-out: Myostatin Inhibition 30nM; for inhibition at 0.1 µM: peptide 100nM, read-out: Myostatin Inhibition 100nM
T1 construct: active myostatin (also called mature myostatin) is a homodimer consisting of two C-terminal growth factor domains; purchased R&D systems 788-G8/CF
T1 sequence (O14793 267-375): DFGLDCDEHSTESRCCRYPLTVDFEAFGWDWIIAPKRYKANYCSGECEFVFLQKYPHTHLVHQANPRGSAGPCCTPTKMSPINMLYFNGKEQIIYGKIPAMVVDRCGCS
How it was run: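 HepG2 cells (HB-8065, ATCC) carrying the transfected pGL3(CAGA)12-luc reporter plasmid were treated with myostatin (788-G8/CF, R&D systems) at a final concentration of 10 ng/mL plus peptide and incubated at 37°C, 5% CO2 for 20 to 24 hours. Luminescence was read after adding PBS mixed 1:1 with One-Glo substrate, and inhibition rate was calculated.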

[2] = target: T2, GDF-11 (Homo sapiens, UniProt O95390); assay: HepG2 reporter gene assay, Evaluation Procedure (2): 2-concentrations assay, GDF-11 inhibition; format: cell-based; details: GDF-11 10 ng/mL; for inhibition at 0.03 µM: HepG2, peptide 30nM, read-out: GDF11 Inhibition 30nM; for inhibition at 0.1 µM: HepG2, peptide 100nM, read-out: GDF11 Inhibition 100nM
T2 construct: purchased R&D systems 1958-GD-G8/CF
T2 sequence (O95390 299-407): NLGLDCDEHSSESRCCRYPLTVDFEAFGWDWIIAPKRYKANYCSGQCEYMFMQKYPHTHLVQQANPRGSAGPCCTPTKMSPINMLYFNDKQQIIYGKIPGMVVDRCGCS
How it was run: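 HepG2 cells carrying the transfected pGL3(CAGA)12-luc reporter, a pGL3 vector with luciferase placed downstream of 12 CAGA repeats, were stimulated with GDF-11 at a final 10 ng/mL together with test peptide. Blank wells received no GDF-11 and no peptide. Plates were incubated 20 to 24 hours at 37°C with 5% CO2. Luminescence from One-Glo substrate was read to calculate percent inhibition.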

Row | Compound | inhibition at 0.03 µM [1] [%] | inhibition at 0.1 µM [1] [%] | inhibition at 0.03 µM [2] [%] | inhibition at 0.1 µM [2] [%]
1 | CCCCCCC[C@@H]1NC(=O)[C@H](Cc2ccccc2)N(C)C(=O)[C@H](CCCNC(=N)N)NC(=O)[C@H](Cc2ccc(C(=O)O)cc2)NC(=O)[C@H](Cc2cccc(OCC(=O)O)c2)NC(=O)CN(C)C(=O)[C@H]([C@@H](C)CC)NC(=O)[C@H](Cc2ccccc2)N(C)C(=O)[C@H](Cc2ccc(O)cc2)NC(=O)[C@H](Cc2c[nH]c3cnccc23)NC(=O)[C@H](C)NC(=O)[C@H](C)NC(=O)CSC[C@H](C(=O)O)NC(=O)[C@H](Cc2ccccc2)N(C)C(=O)[C@H](C)N(C)C1=O [Myostatin_99_v208] ({CH2CO}-AA[Trp(6-aza)]Y[NMeF]I[Sar][Phe(3-OCH2COOH)][Phe(4-COOH)]R[NMeF][X1][NMeA][NMeF][dC]-OH; thioether N-15) | 98 | 100 | 0 | 20
2 | CCCCCCC[C@@H]1NC(=O)[C@H](Cc2ccncc2)N(C)C(=O)[C@H](CCCNC(=N)N)NC(=O)[C@H](Cc2ccc(C(=O)O)cc2)NC(=O)[C@H](Cc2cccc(OCC(=O)O)c2)NC(=O)CN(C)C(=O)[C@H]([C@@H](C)CC)NC(=O)[C@H](Cc2ccccc2)N(C)C(=O)[C@H](Cc2ccc(O)cc2)NC(=O)[C@H](Cc2c[nH]c3ccccc23)NC(=O)[C@H](C)NC(=O)[C@H](C)NC(=O)CSC[C@H](C(=O)O)NC(=O)[C@H](Cc2ccccc2)N(C)C(=O)[C@H](C)N(C)C1=O [Myostatin_99_v210] ({CH2CO}-AAWY[NMeF]I[Sar][Phe(3-OCH2COOH)][Phe(4-COOH)]R[NMe4Pal][X1][NMeA][NMeF][dC]-OH; thioether N-15) | 95 | 99 | 0 | 7
3 | CCCCCCC[C@@H]1NC(=O)[C@H](Cc2ccccc2)N(C)C(=O)[C@H](CCCNC(=N)N)NC(=O)[C@H](Cc2ccc(C(=O)O)cc2)NC(=O)[C@H](Cc2cccc(OCC(=O)O)c2)NC(=O)CN(C)C(=O)[C@H]([C@@H](C)CC)NC(=O)[C@H](Cc2ccccc2)N(C)C(=O)[C@H](Cc2ccc(O)cc2)NC(=O)[C@H](Cc2c[nH]c3ccccc23)NC(=O)[C@H](C)NC(=O)[C@H](C)NC(=O)CSC[C@H](C(=O)O)NC(=O)[C@H](Cc2ccncc2)N(C)C(=O)[C@H](C)N(C)C1=O [Myostatin_99_v213] ({CH2CO}-AAWY[NMeF]I[Sar][Phe(3-OCH2COOH)][Phe(4-COOH)]R[NMeF][X1][NMeA][NMe4Pal][dC]-OH; thioether N-15) | 90 | 98 | 0 | 0
4 | CCCCCCC[C@@H]1NC(=O)[C@H](Cc2ccccc2)N(C)C(=O)[C@H](CCCNC(=N)N)NC(=O)[C@H](Cc2ccncc2)NC(=O)[C@H](Cc2cccc(OCC(=O)O)c2)NC(=O)CN(C)C(=O)[C@H]([C@@H](C)CC)NC(=O)[C@H](Cc2ccccc2)N(C)C(=O)[C@H](Cc2ccc(O)cc2)NC(=O)[C@H](Cc2c[nH]c3ccccc23)NC(=O)[C@@H](CCC(=O)O)NC(=O)[C@H](C)NC(=O)CSC[C@H](C(=O)O)NC(=O)[C@H](Cc2ccccc2)N(C)C(=O)[C@H](C)N(C)C1=O [Myostatin_99_v218] ({CH2CO}-A[dE]WY[NMeF]I[Sar][Phe(3-OCH2COOH)][4Pal]R[NMeF][X1][NMeA][NMeF][dC]-OH; thioether N-15) | 44 | 74 | 0 | 0
5 | CCCCCCC[C@@H]1NC(=O)[C@H](Cc2ccccc2)N(C)C(=O)[C@H](CCCNC(=N)N)NC(=O)[C@H](Cc2ccc(C(=O)O)cc2)NC(=O)[C@H](Cc2cccc(OCC(=O)O)c2)NC(=O)CN(C)C(=O)[C@H]([C@@H](C)CC)NC(=O)[C@H](Cc2ccccc2)N(C)C(=O)[C@H](Cc2ccc(O)cc2)NC(=O)[C@H](Cc2c[nH]c3ccccc23)NC(=O)[C@H](C)NC(=O)[C@H](C)NC(=O)CSC[C@@H](C(=O)N2CCN(CC(=O)O)CC2)NC(=O)[C@H](Cc2ccccc2)N(C)C(=O)[C@H](C)N(C)C1=O [Myostatin_99_v220] ({CH2CO}-AAWY[NMeF]I[Sar][Phe(3-OCH2COOH)][Phe(4-COOH)]R[NMeF][X1][NMeA][NMeF]C-{Piperazinyl(4-CH2COOH)}; thioether N-15) | 95 | 99 | 0 | 5

Further lines, results first:

Row | inhibition at 0.03 µM [1] [%] | inhibition at 0.1 µM [1] [%] | inhibition at 0.03 µM [2] [%] | inhibition at 0.1 µM [2] [%] | Compound
6 | 93 | 99 | 0 | 8 | CCCCCCC[C@@H]1NC(=O)[C@H](Cc2ccccc2)N(C)C(=O)[C@H](CCCNC(=N)N)NC(=O)[C@H](Cc2ccc(C(=O)O)cc2)NC(=O)[C@H](Cc2ccncc2)NC(=O)CN(C)C(=O)[C@H]([C@@H](C)CC)NC(=O)[C@H](Cc2ccccc2)N(C)C(=O)[C@H](Cc2ccc(O)cc2)NC(=O)[C@H](Cc2c[nH]c3ccccc23)NC(=O)[C@H](C)NC(=O)CN(CC(=O)O)C(=O)CSC[C@H](C(=O)O)NC(=O)[C@H](Cc2ccccc2)N(C)C(=O)[C@H](C)N(C)C1=O [Myostatin_99_v222]
7 | 94 | 99 | 0 | 28 | CCCCCCC[C@@H]1NC(=O)[C@H](Cc2ccccc2)N(C)C(=O)[C@H](CCCNC(=N)N)NC(=O)[C@H](Cc2ccc(C(=O)O)cc2)NC(=O)[C@H](Cc2ccncc2)NC(=O)CN(C)C(=O)[C@H]([C@@H](C)CC)NC(=O)[C@H](Cc2ccccc2)N(C)C(=O)[C@H](Cc2ccc(O)cc2)NC(=O)[C@H](Cc2c[nH]c3ccccc23)NC(=O)[C@H](C)NC(=O)CN(CCCOC)C(=O)CSC[C@H](C(=O)O)NC(=O)[C@H](Cc2ccccc2)N(C)C(=O)[C@H](C)N(C)C1=O [Myostatin_99_v223] ({CH2CO}-[Gly(N-(CH2)3OMe)]AWY[NMeF]I[Sar][4Pal][Phe(4-COOH)]R[NMeF][X1][NMeA][NMeF][dC]-OH; thioether N-15)
8 | 96 | 99 | 0 | 0 | CCCCCCC[C@@H]1NC(=O)[C@H](Cc2ccccc2)N(C)C(=O)[C@H](CCCNC(=N)N)NC(=O)[C@H](Cc2ccc(C(=O)O)cc2)NC(=O)[C@H](Cc2ccncc2)NC(=O)CN(C)C(=O)[C@H]([C@@H](C)CC)NC(=O)[C@H](Cc2ccccc2)N(C)C(=O)[C@H](Cc2ccc(O)cc2)NC(=O)[C@H](Cc2c[nH]c3ccccc23)NC(=O)[C@H](C)NC(=O)CN(CCOC)C(=O)CSC[C@H](C(=O)O)NC(=O)[C@H](Cc2ccccc2)N(C)C(=O)[C@H](C)N(C)C1=O [Myostatin_99_v224] ({CH2CO}-[Nme]AWY[NMeF]I[Sar][4Pal][Phe(4-COOH)]R[NMeF][X1][NMeA][NMeF][dC]-OH; thioether N-15)
9 | 94 | 99 | 0 | 3 | CCCCCCC[C@@H]1NC(=O)[C@H](Cc2ccccc2)N(C)C(=O)[C@H](CCCNC(=N)N)NC(=O)[C@H](Cc2ccc(C(=O)O)cc2)NC(=O)[C@H](Cc2ccncc2)NC(=O)CN(C)C(=O)[C@H]([C@@H](C)CC)NC(=O)[C@H](Cc2ccccc2)N(C)C(=O)[C@H](Cc2ccc(O)cc2)NC(=O)[C@H](Cc2c[nH]c3ccccc23)NC(=O)[C@H](C)NC(=O)CN(CCCNC(C)=O)C(=O)CSC[C@H](C(=O)O)NC(=O)[C@H](Cc2ccccc2)N(C)C(=O)[C@H](C)N(C)C1=O [Myostatin_99_v225] ({CH2CO}-[X5]AWY[NMeF]I[Sar][4Pal][Phe(4-COOH)]R[NMeF][X1][NMeA][NMeF][dC]-OH; thioether N-15)
